Reference: ChEMBL document CHEMBL1201862, “PubChem BioAssay data set” (2004)
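Compound exposure: 48 hours, 5 concentrations, 96-well plates. At the GI50, growth is halved.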 Calls of active or inactive are those of the source. Cut-off read from the data, not from the text of the source: active = GI50 up to about 1.1 µM and inactive = higher.

How the values were obtained:
Experiment in all cases: growth of human tumour cells (NCI), 48 h
OVCAR-3 = tested on: OVCAR-3
SNB-19 = tested on: SNB-19
SR = tested on: SR
TK-10 = tested on: TK-10
SW-620 = tested on: SW-620
A549 = tested on: A549
SNB-75 = tested on: SNB-75
786-0 = tested on: 786-0
UO-31 = tested on: UO-31
UACC-62 = tested on: UACC-62
SF-268 = tested on: SF-268
Malme-3M = tested on: Malme-3M
IGROV-1 = tested on: IGROV-1
SF-539 = tested on: SF-539
NCI-H460 = tested on: NCI-H460
NCI-H23 = tested on: NCI-H23
KM12 = tested on: KM12
OVCAR-4 = tested on: OVCAR-4
UACC-257 = tested on: UACC-257
K562 = tested on: K562
HOP-62 = tested on: HOP-62
SK-OV-3 = tested on: SK-OV-3
HL-60 = tested on: HL-60
SN12C = tested on: SN12C
COLO 205 = tested on: COLO 205
KM-20L2 = tested on: KM-20L2
SK-MEL-2 = tested on: SK-MEL-2
HCT-116 = tested on: HCT-116
EKVX = tested on: EKVX
DMS-273 = tested on: DMS-273
U-251 = tested on: U-251
HCT-15 = tested on: HCT-15
RXF 393 = tested on: RXF 393
LOX IMVI = tested on: LOX IMVI
OVCAR-8 = tested on: OVCAR-8
M14 = tested on: M14
CCRF-CEM = tested on: CCRF-CEM
XF498 = tested on: XF498
LXFL 529 = tested on: LXFL 529
NCI-H226 = tested on: NCI-H226
SK-MEL-28 = tested on: SK-MEL-28
DLD-1 = tested on: DLD-1
SF-295 = tested on: SF-295
SNB-78 = tested on: SNB-78
SK-MEL-5 = tested on: SK-MEL-5
NCI-H522 = tested on: NCI-H522
HCC 2998 = tested on: HCC 2998
M19-MEL = tested on: M19-MEL
MOLT-4 = tested on: MOLT-4
ACHN = tested on: ACHN
HT-29 = tested on: HT-29
HOP-18 = tested on: HOP-18
DMS-114 = tested on: DMS-114
OVCAR-5 = tested on: OVCAR-5
HOP-92 = tested on: HOP-92
A498 = tested on: A498
RPMI-8226 = tested on: RPMI-8226

CCC(C)CNC1=C(NC(C)=O)C(=O)c2ccccc2C1=O (configuration not stated)
GI50 (OVCAR-3): 55.7 µM (inactive) | GI50 (SNB-19): > 100 µM (inactive) | GI50 (SR): > 100 µM (inactive) | GI50 (TK-10): > 100 µM (inactive) | GI50 (SW-620): > 100 µM (inactive) | GI50 (A549): > 100 µM (inactive) | GI50 (SNB-75): > 100 µM (inactive) | GI50 (786-0): > 100 µM (inactive) | GI50 (UO-31): > 100 µM (inactive) | GI50 (UACC-62): > 100 µM (inactive) | GI50 (SF-268): > 100 µM (inactive) | GI50 (Malme-3M): 35.5 µM (inactive) | GI50 (IGROV-1): > 100 µM (inactive) | GI50 (SF-539): > 100 µM (inactive) | GI50 (NCI-H460): 94.6 µM (inactive) | GI50 (NCI-H23): 67.8 µM (inactive) | GI50 (KM12): > 100 µM (inactive) | GI50 (OVCAR-4): > 100 µM (inactive) | GI50 (UACC-257): > 100 µM (inactive) | GI50 (K562): > 100 µM (inactive) | GI50 (HOP-62): > 100 µM (inactive) | GI50 (SK-OV-3): > 100 µM (inactive) | GI50 (HL-60): > 100 µM (inactive) | GI50 (SN12C): > 100 µM (inactive) | GI50 (COLO 205): 78.9 µM (inactive) | GI50 (KM-20L2): > 100 µM (inactive) | GI50 (SK-MEL-2): > 100 µM (inactive) | GI50 (HCT-116): > 100 µM (inactive) | GI50 (EKVX): > 100 µM (inactive) | GI50 (DMS-273): > 100 µM (inactive) | GI50 (U-251): > 100 µM (inactive) | GI50 (HCT-15): > 100 µM | GI50 (RXF 393): > 100 µM (inactive) | GI50 (LOX IMVI): > 100 µM (inactive) | GI50 (OVCAR-8): > 100 µM (inactive) | GI50 (M14): > 100 µM (inactive) | GI50 (CCRF-CEM): > 100 µM (inactive) | GI50 (XF498): > 100 µM (inactive) | GI50 (LXFL 529): > 100 µM (inactive) | GI50 (NCI-H226): > 100 µM (inactive) | GI50 (SK-MEL-28): > 100 µM (inactive) | GI50 (DLD-1): > 100 µM (inactive) | GI50 (SF-295): > 100 µM (inactive) | GI50 (SNB-78): > 100 µM (inactive) | GI50 (SK-MEL-5): 31.6 µM (inactive) | GI50 (NCI-H522): 78.2 µM (inactive) | GI50 (HCC 2998): > 100 µM (inactive) | GI50 (M19-MEL): 20.7 µM (inactive) | GI50 (MOLT-4): > 100 µM (inactive) | GI50 (ACHN): > 100 µM (inactive) | GI50 (HT-29): > 100 µM (inactive)

CC(c1ccccc1)/[N+]([O-])=C/c1ccccc1 (configuration not stated)
GI50 (OVCAR-3): > 100 µM (inactive) | GI50 (SNB-19): > 100 µM (inactive) | GI50 (TK-10): > 100 µM (inactive) | GI50 (SW-620): > 100 µM (inactive) | GI50 (A549): > 100 µM (inactive) | GI50 (HOP-18): 34.9 µM (inactive) | GI50 (DMS-114): > 100 µM (inactive) | GI50 (SNB-75): > 100 µM (inactive) | GI50 (OVCAR-5): > 100 µM (inactive) | GI50 (UO-31): > 100 µM (inactive) | GI50 (SF-268): > 100 µM (inactive) | GI50 (IGROV-1): > 100 µM (inactive) | GI50 (SF-539): > 100 µM (inactive) | GI50 (NCI-H460): > 100 µM (inactive) | GI50 (HOP-92): > 100 µM (inactive) | GI50 (A498): > 100 µM (inactive) | GI50 (NCI-H23): > 100 µM (inactive) | GI50 (KM12): > 100 µM (inactive) | GI50 (UACC-257): > 100 µM (inactive) | GI50 (K562): > 100 µM (inactive) | GI50 (HOP-62): > 100 µM (inactive) | GI50 (SK-OV-3): > 100 µM (inactive) | GI50 (HL-60): > 100 µM (inactive) | GI50 (COLO 205): > 100 µM (inactive) | GI50 (KM-20L2): > 100 µM (inactive) | GI50 (HCT-116): > 100 µM (inactive) | GI50 (EKVX): > 100 µM (inactive) | GI50 (DMS-273): > 100 µM (inactive) | GI50 (U-251): > 100 µM (inactive) | GI50 (RXF 393): > 100 µM (inactive) | GI50 (LOX IMVI): > 100 µM (inactive) | GI50 (OVCAR-8): > 100 µM (inactive) | GI50 (CCRF-CEM): > 100 µM (inactive) | GI50 (XF498): > 100 µM (inactive) | GI50 (LXFL 529): > 100 µM (inactive) | GI50 (RPMI-8226): > 100 µM (inactive) | GI50 (SK-MEL-28): > 100 µM (inactive) | GI50 (DLD-1): > 100 µM (inactive) | GI50 (SF-295): > 100 µM (inactive) | GI50 (SNB-78): > 100 µM (inactive) | GI50 (NCI-H522): > 100 µM (inactive) | GI50 (HCC 2998): > 100 µM (inactive) | GI50 (M19-MEL): > 100 µM (inactive) | GI50 (MOLT-4): > 100 µM (inactive) | GI50 (ACHN): > 100 µM (inactive) | GI50 (HT-29): > 100 µM (inactive)
